Laboratory results as given in ChEMBL document CHEMBL5576135, “Discovery of Indolo[3,2-c]isoquinoline Derivatives as Novel Top1/2 Dual Inhibitors with Orally Efficacious Antitumor Activity and Low Toxicity” (J Med Chem, 2024).
Calls of active or inactive are those of the source. The rule behind the calls is not given here.

Legend:
MCF7 = experiment: Antiproliferative activity against human MCF7 cells assessed as inhibition of cell growth incubated for 96 hrs by MTT based ELISA; assay type: functional; settings: MCF7, 96 h
PC-3 = experiment: Antiproliferative activity against human PC-3 cells assessed as inhibition of cell growth incubated for 96 hrs by MTT based ELISA; assay type: functional; settings: PC-3, 96 h
HCT-116 [1] = experiment: Antiproliferative activity against human HCT-116 cells assessed as inhibition of cell growth incubated for 96 hrs by MTT based ELISA; assay type: functional; settings: HCT-116, 96 h
Huh-7 = experiment: Antiproliferative activity against human Huh-7 cells assessed as inhibition of cell growth incubated for 96 hrs by MTT based ELISA; assay type: functional; settings: Huh-7, 96 h
A549 = experiment: Antiproliferative activity against human A549 cells assessed as inhibition of cell growth incubated for 96 hrs by MTT based ELISA; assay type: functional; settings: A549, 96 h
PC-9 = experiment: Antiproliferative activity against human PC-9 cells assessed as inhibition of cell growth incubated for 96 hrs by MTT based ELISA; assay type: functional; settings: PC-9, 96 h
[2] = Antiproliferative activity against human BEAS-2B cells assessed as inhibition of cell growth incubated for 96 hrs by MTT based ELISA; assay type: toxicity
[3] = Half life in ICR mouse at 10 mg/kg,po measured upto 24 hrs by LC-MS/MS analysis; assay type: ADME, organism-based; settings: in vivo
[4] = Cmax in ICR mouse at 10 mg/kg,po measured upto 24 hrs by LC-MS/MS analysis; assay type: ADME, organism-based; settings: in vivo
[5] = MRT (0 to t) in ICR mouse at 10 mg/kg,po measured upto 24 hrs by LC-MS/MS analysis; assay type: ADME, organism-based; settings: in vivo
[6] = MRT (0 to infinity) in ICR mouse at 10 mg/kg,po measured upto 24 hrs by LC-MS/MS analysis; assay type: ADME, organism-based; settings: in vivo
[7] = AUC (0 to infinity) in ICR mouse at 10 mg/kg,po measured upto 24 hrs by LC-MS/MS analysis; assay type: ADME, organism-based; settings: in vivo
[8] = target: DNA topoisomerase 2-alpha (Homo sapiens) (UniProt P11388); experiment: Inhibition of Topoisomerase 2 (unknown origin) using pBR322 DNA as substrate at 100 uM incubated for 15 mins by EtBr staining based agarose gel electrophoresis method relative to control
Sequence of DNA topoisomerase 2-alpha (Homo sapiens) (P11388 whole entry): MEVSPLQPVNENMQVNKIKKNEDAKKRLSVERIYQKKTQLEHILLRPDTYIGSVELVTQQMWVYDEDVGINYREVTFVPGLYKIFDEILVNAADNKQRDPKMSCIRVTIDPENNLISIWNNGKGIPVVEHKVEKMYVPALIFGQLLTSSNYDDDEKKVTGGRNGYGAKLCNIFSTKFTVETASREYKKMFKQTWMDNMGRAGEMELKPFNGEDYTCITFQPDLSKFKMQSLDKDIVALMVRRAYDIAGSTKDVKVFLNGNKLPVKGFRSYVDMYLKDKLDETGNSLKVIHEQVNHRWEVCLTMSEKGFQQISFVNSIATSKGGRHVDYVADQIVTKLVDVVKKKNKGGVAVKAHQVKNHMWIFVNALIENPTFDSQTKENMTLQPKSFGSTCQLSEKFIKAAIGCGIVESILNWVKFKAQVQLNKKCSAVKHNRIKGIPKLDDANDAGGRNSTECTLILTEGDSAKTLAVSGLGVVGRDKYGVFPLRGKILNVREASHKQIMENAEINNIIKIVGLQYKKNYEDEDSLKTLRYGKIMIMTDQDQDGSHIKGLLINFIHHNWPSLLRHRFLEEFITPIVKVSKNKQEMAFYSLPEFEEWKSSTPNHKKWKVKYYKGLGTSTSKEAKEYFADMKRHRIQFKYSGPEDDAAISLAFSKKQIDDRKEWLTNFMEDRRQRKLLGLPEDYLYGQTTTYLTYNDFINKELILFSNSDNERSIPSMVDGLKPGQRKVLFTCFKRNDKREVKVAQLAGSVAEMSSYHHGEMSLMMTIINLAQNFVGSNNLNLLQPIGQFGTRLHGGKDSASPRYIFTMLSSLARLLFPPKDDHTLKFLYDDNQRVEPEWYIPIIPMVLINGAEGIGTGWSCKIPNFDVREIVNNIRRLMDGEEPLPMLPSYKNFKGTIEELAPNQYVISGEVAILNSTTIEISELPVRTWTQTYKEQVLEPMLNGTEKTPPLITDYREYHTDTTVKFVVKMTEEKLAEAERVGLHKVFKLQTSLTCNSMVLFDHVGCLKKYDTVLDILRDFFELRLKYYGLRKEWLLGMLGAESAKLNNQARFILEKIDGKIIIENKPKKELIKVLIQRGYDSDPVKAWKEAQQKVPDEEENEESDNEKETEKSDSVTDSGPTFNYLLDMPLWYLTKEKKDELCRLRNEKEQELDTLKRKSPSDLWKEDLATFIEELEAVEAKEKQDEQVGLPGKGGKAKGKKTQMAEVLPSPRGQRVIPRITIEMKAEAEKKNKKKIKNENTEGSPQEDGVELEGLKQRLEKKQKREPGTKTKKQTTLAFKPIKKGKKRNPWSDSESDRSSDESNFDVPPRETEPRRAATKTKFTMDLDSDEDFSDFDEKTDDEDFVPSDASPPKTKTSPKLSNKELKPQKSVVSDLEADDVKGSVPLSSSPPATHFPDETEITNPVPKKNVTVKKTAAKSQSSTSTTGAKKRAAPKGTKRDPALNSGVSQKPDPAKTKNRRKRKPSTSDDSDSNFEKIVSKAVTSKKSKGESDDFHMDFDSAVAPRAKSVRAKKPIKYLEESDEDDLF

[9] = target: T1, DNA topoisomerase 1 (Homo sapiens) (UniProt P11387); experiment: Inhibition of Topoisomerase I (unknown origin) using pBR322 DNA as substrate at 50 uM incubated for 15 mins by EtBr staining based agarose gel electrophoresis method
T1 sequence (whole entry): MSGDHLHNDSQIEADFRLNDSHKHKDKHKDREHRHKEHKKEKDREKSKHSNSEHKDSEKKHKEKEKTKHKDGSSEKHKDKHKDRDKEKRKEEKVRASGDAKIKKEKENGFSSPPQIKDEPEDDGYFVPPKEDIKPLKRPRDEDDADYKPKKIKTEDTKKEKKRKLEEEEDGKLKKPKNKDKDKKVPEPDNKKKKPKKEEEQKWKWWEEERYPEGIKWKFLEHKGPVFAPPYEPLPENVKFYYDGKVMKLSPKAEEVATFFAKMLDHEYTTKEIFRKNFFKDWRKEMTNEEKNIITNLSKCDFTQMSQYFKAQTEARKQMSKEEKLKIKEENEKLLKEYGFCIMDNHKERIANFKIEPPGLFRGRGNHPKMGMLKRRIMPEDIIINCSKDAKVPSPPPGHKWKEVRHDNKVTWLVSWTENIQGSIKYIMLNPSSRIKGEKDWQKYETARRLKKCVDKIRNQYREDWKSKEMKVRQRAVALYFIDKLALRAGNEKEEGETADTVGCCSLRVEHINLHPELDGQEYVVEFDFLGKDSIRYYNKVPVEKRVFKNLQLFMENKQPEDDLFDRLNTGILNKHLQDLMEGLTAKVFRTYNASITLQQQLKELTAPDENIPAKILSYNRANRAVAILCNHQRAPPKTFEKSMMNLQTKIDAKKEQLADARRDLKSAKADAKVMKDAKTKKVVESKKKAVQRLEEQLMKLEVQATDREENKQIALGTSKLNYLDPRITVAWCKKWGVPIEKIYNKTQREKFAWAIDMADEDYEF

[10] = target: DNA topoisomerase 2-alpha (Homo sapiens) (UniProt P11388); experiment: Inhibition of Topoisomerase 2 (unknown origin) using pBR322 DNA as substrate at 50 uM incubated for 15 mins by EtBr staining based agarose gel electrophoresis method
NCI-H446 [11] = experiment: Induction of DNA damage in human NCI-H446 cells assessed as increase in intracellular ROS level at 4 to 8 uM incubated for 6 hrs by DCFHDA probe based fluorescence microscopic analysis; assay type: functional, cell-based; settings: dose 4-8 µM
NCI-H446 [12] = experiment: Induction of cell cycle arrest in human NCI-H446 cells assessed as accumulation of cells at S phase at 1 to 2 uM incubated for 48 hrs by propidium iodide/RNase A staining based flow cytometry; assay type: functional; settings: dose 1-2 µM
NCI-H446 [13] = experiment: Induction of cell cycle arrest in human NCI-H446 cells assessed as accumulation of cells at S phase at 2 uM incubated for 48 hrs by propidium iodide/RNase A staining based flow cytometry relative to control; assay type: functional
Cell membrane = experiment: Induction of mitochondrial membrane potential loss in human NCI-H446 cells at 8 uM incubated for 24 hrs by JC-1 staining based flow cytometry; assay type: cell membranes
[14] = Toxicity in Kunming mouse assessed as lethal dose at po administration for 2 weeks; assay type: organism-based; settings: in vivo
[15] = Toxicity in Kunming mouse assessed as change in serum AST level at 100 mg/kg,po administration for 2 weeks; assay type: organism-based; settings: in vivo, 336 h
[16] = Toxicity in Kunming mouse assessed as change in serum creatinine level at 100 mg/kg,po administration for 2 weeks; assay type: organism-based; settings: in vivo, 336 h
[17] = Toxicity in Kunming mouse assessed as morphological change in lung at 100 mg/kg,po administration for 2 weeks; assay type: organism-based; settings: in vivo, 336 h
[18] = Toxicity in Kunming mouse assessed as change in organ coefficient of liver at 100 mg/kg,po administration for 2 weeks; assay type: organism-based; settings: in vivo, 336 h
NCI-H446 [19] = experiment: Antitumor activity against human NCI-H446 cells xenografted with BALB/c mouse assessed as tumor growth inhibition at 50 mg/kg,po administrated once daily for 21 days relative to control; assay type: functional; settings: NCI-H446, 504 h, time 21 day, read-out: TGI
NCI-H446 [20] = experiment: Antitumor activity against human NCI-H446 cells xenografted with BALB/c mouse assessed as tumor growth inhibition by measuring T/C ratio at 100 mg/kg,po administrated once daily for 21 days; assay type: functional; settings: time 21 day
HCT-116 [21] = experiment: Antitumor activity against human HCT-116 cells xenografted with BALB/c mouse assessed as tumor growth inhibition by measuring T/C ratio at 50 mg/kg,po administrated once daily for 21 days; assay type: functional; settings: time 21 day
[22] = target: T1, DNA topoisomerase 1 (Homo sapiens); experiment: Inhibition of Topoisomerase I (unknown origin) using pBR322 DNA as substrate at 5 uM incubated for 15 mins by EtBr staining based agarose gel electrophoresis method
[23] = target: T1, DNA topoisomerase 1 (Homo sapiens); experiment: Inhibition of Topoisomerase I (unknown origin) using pBR322 DNA as substrate at 2 uM incubated for 15 mins by EtBr staining based agarose gel electrophoresis method

Compound | IC50 (MCF7) [nM] | IC50 (PC-3) [nM] | IC50 (HCT-116 [1]) [nM] | IC50 (Huh-7) [nM] | IC50 (A549) [nM] | IC50 (PC-9) [nM] | IC50 at 96 h [2] [nM] | half-life [3] [h] | Cmax [4] [ng/mL] | MRT last at 24 h [5] [h] | MRT inf [6] [h] | AUC(0-inf) [7] [ng·h/mL] | inhibition [8] [%] | inhibition [9] | inhibition [10] | Activity (NCI-H446 [11]) | Activity (NCI-H446 [12]) | Activity (NCI-H446 [13]) [%] | Activity (Cell membrane) | LD50 at 336 h [14] [mg/kg] | further results
COc1ccc2c(c1)c1ncc3ccccc3c1n2CCCC(=O)NO | 670 | 970 | 530 | 2500 | 2510 | 1260 | > 10000 | 1.15 | 109 | 1.35 | 1.72 | 267 | > 95 | Active | Active | Active | Active | 60.3 | Active | > 1000 | Activity [15]: Non-Toxic; Activity [16]: Non-Toxic; Activity [17]: Non-Toxic; Activity [18]: Non-Toxic
CN(C)CCCn1c2cc3c(cc2c2ncc4ccccc4c21)OCO3 | 350 | 400 | 210 | 830 | 1100 | 760 | 9570 | 1.66 | 284 | 5 | 5 | 2040 | > 95 | Active | Active | Active | Active | 61.1 | Active | > 1000 | Activity [15]: Non-Toxic; Activity [16]: Non-Toxic; Activity [17]: Non-Toxic; Activity [18]: Non-Toxic; inhibition in vivo at 50 mg/kg (NCI-H446 [19]): 49.2%; T/C (NCI-H446 [20]): 35.2%; T/C (HCT-116 [21]): 55%; inhibition [22]: Active; inhibition [23]: Active
